Columns and labels:
Format in all cases: ADME, subcellular
Aldehyde oxidase [1] = biological target: T1, Aldehyde oxidase (Homo sapiens, UniProt Q06278); experiment: Drug level in human liver S9 fraction assessed as aldehyde oxidase-mediated compound formation treated with 10 uM 1-(1H-benzo[d]imidazol-4-yl)-N-carbamimidoyl-5-cyclopropyl-1H-pyrazole-4-carboxamide by spectrometry
T1 sequence (Q06278 whole entry): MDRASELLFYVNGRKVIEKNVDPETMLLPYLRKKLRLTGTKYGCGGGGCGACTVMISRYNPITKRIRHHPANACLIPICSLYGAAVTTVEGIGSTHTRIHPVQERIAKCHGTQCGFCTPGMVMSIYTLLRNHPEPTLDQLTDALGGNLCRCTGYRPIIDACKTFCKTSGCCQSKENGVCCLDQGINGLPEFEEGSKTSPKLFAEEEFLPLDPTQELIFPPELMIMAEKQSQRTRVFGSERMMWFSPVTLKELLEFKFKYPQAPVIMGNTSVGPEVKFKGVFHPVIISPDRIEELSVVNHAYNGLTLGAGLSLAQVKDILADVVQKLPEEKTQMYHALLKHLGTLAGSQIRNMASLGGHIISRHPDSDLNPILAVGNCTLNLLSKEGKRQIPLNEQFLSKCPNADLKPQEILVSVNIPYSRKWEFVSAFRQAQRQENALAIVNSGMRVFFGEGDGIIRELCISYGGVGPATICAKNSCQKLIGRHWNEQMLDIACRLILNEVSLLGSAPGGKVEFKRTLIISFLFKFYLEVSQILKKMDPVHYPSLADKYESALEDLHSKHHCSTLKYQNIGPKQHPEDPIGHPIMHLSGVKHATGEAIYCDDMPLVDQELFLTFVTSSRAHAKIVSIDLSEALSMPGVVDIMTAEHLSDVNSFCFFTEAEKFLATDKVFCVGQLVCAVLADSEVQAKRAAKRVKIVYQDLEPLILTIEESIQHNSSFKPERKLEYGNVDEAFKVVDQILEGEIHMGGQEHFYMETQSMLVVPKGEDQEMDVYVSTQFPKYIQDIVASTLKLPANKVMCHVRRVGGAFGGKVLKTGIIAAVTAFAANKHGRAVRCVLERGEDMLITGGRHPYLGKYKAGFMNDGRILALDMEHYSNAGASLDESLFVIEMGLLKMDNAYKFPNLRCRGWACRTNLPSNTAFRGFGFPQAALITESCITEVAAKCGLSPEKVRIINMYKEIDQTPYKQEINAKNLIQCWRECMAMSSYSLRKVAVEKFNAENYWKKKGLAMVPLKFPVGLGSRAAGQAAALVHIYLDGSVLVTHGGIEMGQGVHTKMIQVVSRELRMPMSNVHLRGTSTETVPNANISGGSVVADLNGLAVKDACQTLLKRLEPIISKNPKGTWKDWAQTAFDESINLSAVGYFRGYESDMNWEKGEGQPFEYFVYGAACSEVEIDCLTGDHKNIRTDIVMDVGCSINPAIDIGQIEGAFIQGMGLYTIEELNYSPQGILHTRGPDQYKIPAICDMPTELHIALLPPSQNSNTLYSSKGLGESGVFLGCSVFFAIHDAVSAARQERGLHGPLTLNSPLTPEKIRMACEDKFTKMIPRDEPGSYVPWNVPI

Aldehyde oxidase [2] = biological target: T1, Aldehyde oxidase; experiment: Drug level in human liver S9 fraction assessed as aldehyde oxidase-mediated compound formation treated with 10 uM N-carbamimidoyl-5-cyclopropyl-1-(quinolin-4-yl)-1H-pyrazole-4-carboxamide by spectrometry
Aldehyde oxidase [3] = biological target: T1, Aldehyde oxidase; experiment: Drug level in human liver S9 fraction assessed as aldehyde oxidase-mediated compound formation treated with 10 uM N-carbamimidoyl-5-cyclopropyl-1-(quinolin-6-yl)-1H-pyrazole-4-carboxamide by spectrometry

Q: `N=C(N)NC(=O)c1cnn(-c2cccc3[nH]c(=O)[nH]c23)c1C1CC1` was tested. Which Drug metabolism (Aldehyde oxidase [1]) did it give?
A: The Drug metabolism was “metabolite_detected”.

Q: How did the Drug metabolism (Aldehyde oxidase [2]) turn out when `N=C(N)NC(=O)c1cnn(-c2cc(=O)[nH]c3ccccc23)c1C1CC1` was run?
A: Its Drug metabolism is “metabolite_detected”.

Q: Which Drug metabolism (Aldehyde oxidase [3]) does the source give for `N=C(N)NC(=O)c1cnn(-c2ccc3[nH]c(=O)ccc3c2)c1C1CC1` here?
A: The Drug metabolism was “metabolite_detected”.

From ChEMBL document CHEMBL3525904, “Effect of structural variation on aldehyde oxidase-catalyzed oxidation of zoniporide” (Drug Metab Dispos, 2012)
